# Assays:
# [1] = tested on: acetylation level of α-tubulin in HCT116 cells; experiment: Assay on acetylation level of α-tubulin, HCT116 cells; assay type: cell-based; conditions: Homo sapiens, HCT-116, 6 h
# Procedure: A375/HCT116/HCC827 cells at a logarithmic growth phase were taken, digested with a […] (trypsin), centrifuged, counted, and plated in a 96-well plate at an appropriate cell density (30,000 cells/well) at 100 µL/well, and an appropriate amount of PBS was added around the plate for water sealing. The next day, the cells were treated with the compounds at different concentrations (starting at 100 μM, 5-fold dilution, 9 concentration gradients). After 6 h, the medium was pipetted out and the cells were washed twice with 100 μL of PBST. The cells were then immobilized in 4% paraformaldehyde, and the plate was incubated at room temperature for 20 min. The stationary liquid was discarded and the cells were washed with PBST. 150 μL of special blocking buffer (containing 1% Triton-100) was added to each well for blocking at room temperature for 2 h, and the plate was washed with PBS to remove excess blocking buffer. α-tubulin (DM1A) mouse mAb and acetyl-α-tubulin (Lys40) (D20G3) XP rabbit mAb were diluted at a 1:2000 ratio with a blocking buffer containing 0.033% Triton-100. The dilutions were added to the 96-well plate and the plate was incubated overnight at 4° C. Meanwhile, a blank control group was set. The next day, the plate was washed twice with PBST. Secondary anti-mouse IgG (H+L) (DyLight™ 680 conjugate) and anti-rabbit IgG (H+L) (DyLight™ 800 conjugate) were diluted at a 1:2000 ratio with a blocking buffer containing 0.033% Triton-100. The dilutions were added to a 96-well plate and the plate was incubated at room temperature for 2 h. The plate was washed twice with PBST and once with PBS. Fluorescence signals at 700 nm and 800 nm were detected with a Li-COR Odyssey two-color near-infrared laser imager.
# [2] = Phase I metabolic stability in human liver microsomes (HLMs); assay type: in vitro ADME, humans; conditions: HLM; for Remaining rate (NCF = 60 min): buffer instead of NADPH regeneration system; for Remaining rate (T = 60 min): with NADPH; for CLint scaled at 1 µM / half-life at 1 M / microsomal CLint at 1 M: human, liver microsomes, pH 7.4; for microsomal CLint at 1 M: read-out: CLint (mic)
# Procedure: Phase I metabolic stability of the test compounds in liver microsomes of CD-1 mice (MLMs), Sprague-Dawley rats (RLMs), beagle dogs (DLMs), cynomolgus monkeys (CLMs), and humans (HLMs) was evaluated.
# The animal and human liver microsomes used in the test system were purchased from Xenotech, Corning, or other qualified suppliers and stored in a freezer at a temperature below −60° C. prior to use.
# The test samples and control compounds were separately incubated with animal and human liver microsomes at 37±1° C. for a period of incubation time up to 60 min. The samples were removed at the indicated time points, and the reaction was stopped with acetonitrile or other organic solvents containing an internal standard. After centrifugation, the resulting supernatants were assayed by liquid chromatography-tandem mass spectrometry (LC-MS/MS).
# 73.21 g of dipotassium hydrogenphosphate trihydrate and 10.78 g of potassium dihydrogenphosphate were dissolved in 4000 mL of ultrapure water. The solution was adjusted to pH 7.40±0.10 with 10% phosphoric acid or 1 M potassium hydroxide to make a final concentration of 100 mM.
# The test sample powder was prepared into a stock solution at a certain concentration with DMSO or other organic solvents, which was then further diluted with a proper organic solvent.
# Microsomes of each species were diluted into a 2× working solution with a 100 mM potassium phosphate buffer. The final concentration of the microsomes in the reaction system was 0.5 mg/mL.
# An appropriate amount of nicotinamide adenine dinucleotide phosphate (NADP) and isocitric acid (ISO) powder was weighed out, dissolved in a magnesium chloride solution, and shaken and mixed well. An appropriate amount of isocitrate dehydrogenase (IDH) was added, and the mixture was mixed well by gently turning upside down. The final concentrations in the reaction system were: 1 mM NADP, 1 mM magnesium chloride, 6 mM ISO, and 1 unit/mL IDH.
# Incubation was performed in a 96-well plate. Eight incubation plates were prepared and designated T0, T5, T15, T30, T45, T60, Blank60, and NCF60, respectively. The first 6 plates corresponded to reaction time points of 0, 5, 15, 30, 45, and 60 min, respectively. No test sample or control compound was added to the Blank60 plate, and samples were taken after 60 min of incubation. In the NCF60 plate, incubation was performed for 60 min using the potassium phosphate buffer instead of the NADPH regeneration system solution. Three replicates were made for samples in all conditions.
# The microsomes and the test sample or control compound were mixed, and then the incubation plates Blank60, T5, T15, T30, T45, and T60 except for TO and NCF60 were placed in a 37° C. water bath for pre-incubation for about 10 min. In the incubation plate TO, a stop solution was first added, followed by addition of the NADPH regeneration system working solution, and 98 μL of the potassium phosphate buffer was added to each sample well of the incubation plate NCF60 to initiate the reaction. After the pre-incubations of the incubation plates Blank60, T5, T15, T30, T45, and T60 were completed, 98 μL of the NADPH regeneration system working solution was added to each sample well to initiate the reaction. The reaction temperature was 37±1° C., the final volume of the reaction was 200 μL, and the reaction system included 0.5 mg/mL microsomes, […], 1 mM NADP, 6 mM ISO, and 1 unit/mL IDH.
# At 5 min, 15 min, 30 min, 45 min, and 60 min, a cold stop solution containing an internal standard was added to the reaction plate to stop the reaction.
# All the reaction plates after the reaction was stopped were shaken well and centrifuged at 3220×g at 4° C. for 20 min. After the supernatant was diluted according to a certain proportion, LC-MS/MS analysis was performed.
# Sample analysis was performed by the liquid chromatography-tandem mass spectrometry (LC-MS/MS) method without standard curves and quality control samples. […]
SMILES,EC50 [1] [nM],Remaining rate (NCF = 60 min) [2] [%],Remaining rate (T = 60 min) [2] [%],CLint scaled at 1 µM [2] [mL/min/kg],half-life at 1 M [2] [h],microsomal CLint at 1 M [2] [µL/min/mg]
CC(F)(F)C(=O)N[C@@H]1CCCC[C@H]1N1Cc2ccc(-c3nnc(C(F)F)o3)cc2S1(=O)=O [Compound 1],262,83.4,79.0,< 8.6,> 2.42,< 9.6
O=C(N[C@@H]1CCCC[C@H]1N1Cc2ccc(-c3nnc(C(F)F)o3)cc2S1(=O)=O)C(F)F [Compound 2],140 ± 39.1,97.3,86.1,< 8.6,> 2.42,< 9.6
O=C(N[C@H]1[C@H](N2Cc3ccc(-c4nnc(C(F)F)o4)cc3S2(=O)=O)CCCC1(F)F)C(F)F [Compound 61],195,86.25,85.62,7.26,3.99,
